US20250213579A1, “COMBINATION THERAPIES” (MIRATI THERAPEUTICS, INC., priority 2018, published 2025)
Like-named read-outs stand apart in the source and are kept apart here.

Test system: H2122 cells
Settings: H2122 tumors, nude/nude mice, Compound 478 100 mg/kg and/or Dasatinib 50 mg/kg p.o. daily
Description: Immunocompromised nude/nude mice were inoculated in the right hind flank with cells or patient derived tumor samples harboring a KRas G12C mutation. When tumor volumes reached between 200-400 mm^3 in size, the mice were divided into four groups of 5-12 mice each. The first group was administered vehicle only. […] The fourth group was administered the single agent dose of the KRas G12C inhibitor in combination with the single agent dose of the Src-family kinase inhibitor. […] Tumor volumes were measured using a caliper every two-three days and tumor volumes were calculated by the formula: 0.5×(Length×Width)^2.
Tumor volumes were measured at pre-specified days set forth below.

`Cc1nc(Nc2ncc(C(=O)Nc3c(C)cccc3Cl)s2)cc(N2CCN(CCO)CC2)n1` [Dasatinib, N-(2-chloro-6-methylphenyl)-2-((6-(4-(2-hydroxyethyl)piperazin-1-yl)-2-methylpyrimidin-4-yl)amino)thiazole-5-carboxamide] was tested, and the “Average Tumor Volumes” value (Day 11 from inoculation (start of dosing)) was 324 mm^3, the “Average Tumor Volumes” value (Day 13 from inoculation) was 492 mm^3 and the “Average Tumor Volumes” value (Day 15 from inoculation) was 596 mm^3. For the same compound, the “Average Tumor Volumes” value (Day 18 from inoculation) was 820 mm^3, the tumor growth inhibition (Day 20 (Treatment Day 9)) was 23.5% and the “Average Tumor Volumes” value (Day 20 from inoculation) was 938 mm^3. For the same compound, the “Average Tumor Volumes” value (Day 22 from inoculation) was 1086 mm^3 and the “Average Tumor Volumes” value (Day 25 from inoculation) was 1216 mm^3.
